Data from patent US20230114728A1 (Venatorx Pharmaceuticals, Inc., priority 2019, published 2023).

target: T1, N. gonorrhoeae PBP2 (Neisseria gonorrhoeae, UniProt P08149); assay: Bocillin-FL fluorescence polarization competition binding assay, N. gonorrhoeae PBP2; conditions: fluorescence polarization competition binding assay using Bocillin-FL; read-out: N. gonorrhoeae PBP2 Potency
T1 construct: made in house
Procedure, shortened: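 Fluorescence polarization (ex 490/em 520 nm) competition of inhibitors against Bocillin-FL at 0.1 μM, read up to 60 min. Final PBP levels: E. coli PBP3 1.5 μM; A. baumannii PBP2 2.5 μM, PBP3 0.2 μM in Tris pH 8.0/NaCl/glycerol/Tween 20; N. gonorrhoeae PBP2 […] in Hepes pH 8.0/NaCl/glycerol. EC50 = concentration halving PBP-bound Bocillin-FL.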

T1 sequence (P08149 whole entry): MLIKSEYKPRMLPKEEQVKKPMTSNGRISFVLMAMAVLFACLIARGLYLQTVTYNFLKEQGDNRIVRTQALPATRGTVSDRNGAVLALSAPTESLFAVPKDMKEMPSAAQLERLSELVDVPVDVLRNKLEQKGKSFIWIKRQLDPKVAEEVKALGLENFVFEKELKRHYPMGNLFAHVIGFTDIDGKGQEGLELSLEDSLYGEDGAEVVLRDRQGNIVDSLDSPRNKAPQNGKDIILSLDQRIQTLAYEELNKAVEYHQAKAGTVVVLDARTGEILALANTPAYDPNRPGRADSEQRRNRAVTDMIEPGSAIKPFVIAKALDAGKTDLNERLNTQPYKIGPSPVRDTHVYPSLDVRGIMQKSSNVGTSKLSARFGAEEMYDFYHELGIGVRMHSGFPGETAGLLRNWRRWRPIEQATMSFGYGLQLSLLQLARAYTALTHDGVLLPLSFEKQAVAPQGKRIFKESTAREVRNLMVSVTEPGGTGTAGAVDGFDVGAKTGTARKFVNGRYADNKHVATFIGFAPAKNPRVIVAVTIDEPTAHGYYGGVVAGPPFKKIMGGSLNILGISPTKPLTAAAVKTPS

Q: For NCCN1CCN(C(=O)NC(C(=O)N[C@H]2Cc3cccc(C(=O)O)c3OB2O)c2c(F)c(F)c(O)c(F)c2F)C(=O)C1=O (stereo partly drawn) [Example 174, (3R)-3-(2-(4-(2-aminoethyl)-2,3-dioxopiperazine-1-carboxamido)-2-(2,3,5,6-tetrafluoro-4-hydroxyphenyl)acetamido)-2-hydroxy-3,4-dihydro-2H-benzo[e][1,2]oxaborinine-8-carboxylic acid], which EC50 is on record?
A: < 10 µM

Q: For NCCN1CCN(C(=O)N[C@@H](C(=O)N[C@H]2Cc3cccc(C(=O)O)c3OB2O)c2cc(F)c(O)c(F)c2)C(=O)C1=O (single isomer, unassigned) [Example 159], which EC50 is on record?
A: < 10 µM

Q: How did the EC50 turn out when CCN1CCN(C(=O)NC(C(=O)N[C@H]2Cc3cccc(C(=O)O)c3OB2O)c2c(F)cc(NS(N)(=O)=O)cc2F)C(=O)C1=O (stereo partly drawn) [Example 176, (3R)-3-(2-(2,6-difluoro-4-(sulfamoylamino)phenyl)-2-(4-ethyl-2,3-dioxopiperazine-1-carboxamido)acetamido)-2-hydroxy-3,4-dihydro-2H-benzo[e][1,2]oxaborinine-8-carboxylic acid] was run?
A: < 10 µM

Q: Which EC50 does the source give for CCN1CCN(C(=O)N[C@H](C(=O)N[C@H]2Cc3cccc(C(=O)O)c3OB2O)c2ccc(C(=O)O)cc2Cl)C(=O)C1=O (single isomer, unassigned) [Example 152] here?
A: 10 to 30 µM

Q: For CCN1CCN(C(=O)N[C@@H](C(=O)N[C@H]2Cc3cccc(C(=O)O)c3OB2O)c2ccc(C(=O)O)cc2Cl)C(=O)C1=O (single isomer, unassigned) [Example 151], which EC50 is on record?
A: < 10 µM

Q: How did the EC50 turn out when CCN1CCN(C(=O)N[C@H](C(=O)N[C@H]2Cc3cccc(C(=O)O)c3OB2O)c2ccc(C(=O)O)cc2)C(=O)C1=O (single isomer, unassigned) [Example 123] was run?
A: < 10 µM

Q: How did the EC50 turn out when NCCN1CCN(C(=O)N[C@@H](C(=O)N[C@H]2Cc3cccc(C(=O)O)c3OB2O)c2cc(F)c(O)c(F)c2F)C(=O)C1=O (single isomer, unassigned) [Example 168] was run?
A: < 10 µM

Q: With CCN1CCN(C(=O)N[C@@H](C(=O)N[C@H]2Cc3cccc(C(=O)O)c3OB2O)c2ccc(C(=O)O)c(F)c2F)C(=O)C1=O (single isomer, unassigned) [Example 140] as the compound, how does the EC50 read?
A: < 10 µM

Q: For NCCN1CCN(C(=O)NC(C(=O)N[C@H]2Cc3cccc(C(=O)O)c3OB2O)c2c(F)cc(NS(N)(=O)=O)cc2F)C(=O)C1=O (stereo partly drawn) [Example 177, (3R)-3-(2-(4-(2-aminoethyl)-2,3-dioxopiperazine-1-carboxamido)-2-(2,6-difluoro-4-(sulfamoylamino)phenyl)acetamido)-2-hydroxy-3,4-dihydro-2H-benzo[e][1,2]oxaborinine-8-carboxylic acid], which EC50 is on record?
A: 10 to 30 µM

Q: Which EC50 does the source give for CCN1CCN(C(=O)N[C@H](C(=O)N[C@H]2Cc3cccc(C(=O)O)c3OB2O)c2cc(F)c(C(=O)O)cc2Cl)C(=O)C1=O (single isomer, unassigned) [Example 149] here?
A: 30 to 100 µM

Q: CCN1CCN(C(=O)N[C@H](C(=O)N[C@H]2Cc3cccc(C(=O)O)c3OB2O)c2ccc(C(=O)O)c(F)c2F)C(=O)C1=O (single isomer, unassigned) [Example 139] was tested. Which EC50 did it give?
A: < 10 µM

Q: With CCN1CCN(C(=O)N[C@@H](C(=O)N[C@H]2Cc3cccc(C(=O)O)c3OB2O)c2cc(F)c(C(=O)O)cc2Cl)C(=O)C1=O (single isomer, unassigned) [Example 148] as the compound, how does the EC50 read?
A: < 10 µM

Q: How did the EC50 turn out when CCN1CCN(C(=O)N[C@H](C(=O)N[C@H]2Cc3cccc(C(=O)O)c3OB2O)c2ccc(C(=O)O)c(Cl)c2)C(=O)C1=O (single isomer, unassigned) [Example 155] was run?
A: < 10 µM

Q: CCN1CCN(C(=O)NC(C(=O)N[C@H]2Cc3cccc(C(=O)O)c3OB2O)c2c(F)c(F)c(O)c(F)c2F)C(=O)C1=O (stereo partly drawn) [Example 175, (3R)-3-(2-(4-ethyl-2,3-dioxopiperazine-1-carboxamido)-2-(2,3,5,6-tetrafluoro-4-hydroxyphenyl)acetamido)-2-hydroxy-3,4-dihydro-2H-benzo[e][1,2]oxaborinine-8-carboxylic acid] was tested. Which EC50 did it give?
A: < 10 µM

Q: How did the EC50 turn out when CCN1CCN(C(=O)N[C@@H](C(=O)N[C@H]2Cc3cccc(C(=O)O)c3OB2O)c2ccc(C(=O)O)cc2)C(=O)C1=O (single isomer, unassigned) [Example 124] was run?
A: < 10 µM
